Measured values: PMC4552316 (Nature chemical biology, 2011)

Assays:
[1] = target: E. coli GMPR (EcGMPR), GMP reductase (Escherichia coli, UniProt P60560); assay: spectrophotometric enzyme inhibition assay; assay type: biochemical
[2] = target: T1, human GMPR type 2 (hGMPR2) (Homo sapiens, UniProt Q9P2T1); assay: X-ray crystal structure of E•IMP•NADPH, […] Å; assay type: binding
T1 sequence (Q9P2T1 1-348): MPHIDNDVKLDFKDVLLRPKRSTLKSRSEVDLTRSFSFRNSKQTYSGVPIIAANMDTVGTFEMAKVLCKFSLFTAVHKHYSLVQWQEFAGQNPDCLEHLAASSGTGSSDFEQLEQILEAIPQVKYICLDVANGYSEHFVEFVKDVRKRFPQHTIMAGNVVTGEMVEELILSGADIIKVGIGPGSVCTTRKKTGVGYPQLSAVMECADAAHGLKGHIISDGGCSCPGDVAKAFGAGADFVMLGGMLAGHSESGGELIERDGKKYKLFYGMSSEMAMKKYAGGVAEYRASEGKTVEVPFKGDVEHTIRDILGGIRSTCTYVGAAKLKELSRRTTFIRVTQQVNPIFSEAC

[3] = tested on: CC(=O)C1=CN([C@@H]2O[C@H](COP(=O)(O)OP(=O)(O)OC[C@H]3O[C@@H](n4cnc5c(N)ncnc54)[C@H](OP(=O)(O)O)[C@@H]3O)[C@@H](O)[C@H]2O)C=CC1; assay: purified protein; settings: 2-Cl-IMP (co-substrate); varied: cofactor
[4] = tested on: O=c1[nH]c(Cl)nc2c1ncn2[C@@H]1O[C@H](COP(=O)(O)O)[C@@H](O)[C@H]1O; assay: purified protein; settings: NADPH or NADP+ catalytic Cys186 (E-XMP* intermediate; none with C186A)
crystal structure = target: the molecule itself; assay: crystal structure

Chain of E. coli GMPR (EcGMPR), GMP reductase (P60560 whole entry): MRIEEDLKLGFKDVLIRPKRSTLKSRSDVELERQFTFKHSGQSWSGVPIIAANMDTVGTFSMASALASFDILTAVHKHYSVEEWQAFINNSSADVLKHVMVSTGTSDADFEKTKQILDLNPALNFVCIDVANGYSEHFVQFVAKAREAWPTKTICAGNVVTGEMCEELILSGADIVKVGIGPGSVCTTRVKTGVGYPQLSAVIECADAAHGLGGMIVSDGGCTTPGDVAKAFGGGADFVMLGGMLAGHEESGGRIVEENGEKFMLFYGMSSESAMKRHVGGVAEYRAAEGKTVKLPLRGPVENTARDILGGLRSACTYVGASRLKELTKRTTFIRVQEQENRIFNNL

Q: `NC(=O)c1ncn([C@@H]2O[C@H](COP(=O)(O)O)[C@@H](O)[C@H]2O)c1O` [mizoribine monophosphate] was tested. Which Ki [1] did it give?
A: 0.015 ± 0.003 µM

Q: Which Ki [1] does the source give for `NC(=O)c1ncn([C@@H]2O[C@H](COP(=O)(O)O)[C@@H](O)[C@H]2O)n1` [Ribavirin monophosphate] here?
A: 98 ± 25 µM

Q: `NC(=O)C1=CN([C@@H]2O[C@H](COP(=O)(O)OP(=O)(O)OC[C@H]3O[C@@H](n4cnc5c(N)ncnc54)[C@H](OP(=O)(O)O)[C@@H]3O)[C@@H](O)[C@H]2O)C=CC1` [NADPH] was tested. Which “X-ray crystal structure of E•IMP•NADPH, 1.7 Å” value [2] did it give?
A: NADPH was found in two conformations in the seven monomers, an "in" conformation and an "out" conformation

Q: What does the source list for “E. coli GMPR (EcGMPR), GMP reductase (Escherichia coli K-12)”?
A: Km [3]: 11.0 ± 2.0 µM; Km [4]: 7.8 ± 1.1 µM

B1: human GMP reductase type 2 (enzyme)
chain: LDFKDVLLRPKRSTLKSRSEVDLTRSFSFRNSKQTYSGVPIIAANMDTVGTFEMAKVLCKFSLFTAVHKHYSLVQWQEFAGQNPDCLEHLAASSGTGSSDFEQLEQILEAIPQVKYICLDVANGYSEHFVEFVKDVRKRFPQHTIMAGNVVTGEMVEELILSGADIIKVGIGPGSVCTTRKKTGVGYPQLSAVMECADAAHGLKGHIISDGGCSCPGDVAKAFGAGADFVMLGGMLAGHSESGGELIERDGKKYKLFYGMSSEMAMKKYAGGVAEYRASEGKTVEVPFKGDVEHTIRDILGGIRSTCTYVGAAKLKELSRRTTFIRVTQQVN
Q: How did the “stoichiometry N” value (crystal structure) turn out when B1 was run?
A: 4
